Experimental data reported in PubChem BioAssay AID1259407 (Chemical Carcinogenesis Research Information System (CCRIS), 2018).
Calls of active or inactive are those of the source. The rule behind the calls is not given here.

Tested on: CCRIS mutagenicity, Ames/micronucleus/aberration tests
Assay: CCRIS mutagenicity studies
Details: Test System: AMES SALMONELLA TYPHIMURIUM, Method: PREINCUBATION
[1] = Strain/Indicator: TA97, Metabolic Activation: NONE
[2] = Strain/Indicator: TA98, Metabolic Activation: NONE
[3] = Strain/Indicator: TA100, Metabolic Activation: NONE
[4] = Strain/Indicator: TA1535, Metabolic Activation: NONE

Measured: mutagenic call

CCCCCCCC(=O)O
inactive: Strain/Indicator: TA97, Metabolic Activation: HAMSTER, LIVER, S-9, AROCLOR 1254 (10%) inactive; negative | Strain/Indicator: TA97, Metabolic Activation: HAMSTER, LIVER, S-9, AROCLOR 1254 (30%) inactive; negative | [1] inactive; negative | Strain/Indicator: TA97, Metabolic Activation: RAT, LIVER, S-9, AROCLOR 1254 (10%) inactive; negative | Strain/Indicator: TA97, Metabolic Activation: RAT, LIVER, S-9, AROCLOR 1254 (30%) inactive; negative | Strain/Indicator: TA98, Metabolic Activation: HAMSTER, LIVER, S-9, AROCLOR 1254 (10%) inactive; negative | Strain/Indicator: TA98, Metabolic Activation: HAMSTER, LIVER, S-9, AROCLOR 1254 (30%) inactive; negative | [2] inactive; negative | Strain/Indicator: TA98, Metabolic Activation: RAT, LIVER, S-9, AROCLOR 1254 (10%) inactive; negative | Strain/Indicator: TA98, Metabolic Activation: RAT, LIVER, S-9, AROCLOR 1254 (30%) inactive; negative | Strain/Indicator: TA100, Metabolic Activation: HAMSTER, LIVER, S-9, AROCLOR 1254 (10%) inactive; negative | Strain/Indicator: TA100, Metabolic Activation: HAMSTER, LIVER, S-9, AROCLOR 1254 (30%) inactive; negative | [3] inactive; negative | Strain/Indicator: TA100, Metabolic Activation: RAT, LIVER, S-9, AROCLOR 1254 (10%) inactive; negative | Strain/Indicator: TA100, Metabolic Activation: RAT, LIVER, S-9, AROCLOR 1254 (30%) inactive; negative | Strain/Indicator: TA1535, Metabolic Activation: HAMSTER, LIVER, S-9, AROCLOR 1254 (10%) inactive; negative | Strain/Indicator: TA1535, Metabolic Activation: HAMSTER, LIVER, S-9, AROCLOR 1254 (30%) inactive; negative | [4] inactive; negative | Strain/Indicator: TA1535, Metabolic Activation: RAT, LIVER, S-9, AROCLOR 1254 (10%) inactive; negative | Strain/Indicator: TA1535, Metabolic Activation: RAT, LIVER, S-9, AROCLOR 1254 (30%) inactive; negative | Strain/Indicator: TA1537, Metabolic Activation: HAMSTER, LIVER, S-9, AROCLOR 1254 (10%) inactive; negative | Strain/Indicator: TA1537, Metabolic Activation: HAMSTER, LIVER, S-9, AROCLOR 1254 (30%) inactive; negative | Strain/Indicator: TA1537, Metabolic Activation: NONE inactive; negative | Strain/Indicator: TA1537, Metabolic Activation: RAT, LIVER, S-9, AROCLOR 1254 (10%) inactive; negative | Strain/Indicator: TA1537, Metabolic Activation: RAT, LIVER, S-9, AROCLOR 1254 (30%) inactive; negative

CCC(C(N)=O)(C(N)=O)c1ccccc1
inactive: Strain/Indicator: TA97, Metabolic Activation: HAMSTER, LIVER, S-9, AROCLOR 1254 (10 OR 30%) inactive; negative | [1] inactive; negative | Strain/Indicator: TA97, Metabolic Activation: RAT, LIVER, S-9, AROCLOR 1254 (10 OR 30%) inactive; negative | Strain/Indicator: TA98, Metabolic Activation: HAMSTER, LIVER, S-9, AROCLOR 1254 (10 OR 30%) inactive; negative | [2] inactive; negative | Strain/Indicator: TA98, Metabolic Activation: RAT, LIVER, S-9, AROCLOR 1254 (10 OR 30%) inactive; negative | Strain/Indicator: TA100, Metabolic Activation: HAMSTER, LIVER, S-9, AROCLOR 1254 (10 OR 30%) inactive; negative | [3] inactive; negative | Strain/Indicator: TA100, Metabolic Activation: RAT, LIVER, S-9, AROCLOR 1254 (10 OR 30%) inactive; negative | Strain/Indicator: TA1535, Metabolic Activation: HAMSTER, LIVER, S-9, AROCLOR 1254 (10 OR 30%) inactive; negative | [4] inactive; negative | Strain/Indicator: TA1535, Metabolic Activation: RAT, LIVER, S-9, AROCLOR 1254 (10 OR 30%) inactive; negative
